Article PMC12175168, “Refining the Amino Reactivity-Based Identification of Respiratory Sensitizers” (Chemical Research in Toxicology, 2025)
Where “and” joins values, the source holds several entries; their conditions need not be identical. Equal entries are not always repeated. Entries after “also recorded” stand apart in the source; their conditions may differ.

Columns and labels:
[1] = Kinetic Gly-pNA chemoassay (second-order rate constant k Gly);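 further: Gly-pNA depletion followed over time by chromatographic peak area, with test compound in at least tenfold excess (pseudo-first-order), added from acetonitrile stock, at least three runs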
Protocol: The reactivity of the 27 test compounds toward Gly-pNA was quantified in terms of the second-order reaction rate constant k Gly using our Gly-pNA chemoassay. , In brief, stock solutions of the test compound were freshly obtained every day by gravimetrically adding the required amount into a 10 mL volumetric flask, which was subsequently filled to volume with acetonitrile (ACN). The required amounts of test compounds depended on their reactivity toward Gly-pNA. […] As usual for kinetic studies, fast reacting chemicals are applied at lower concentrations than little reactive candidates. All stock solutions were stored at 25 °C in a climate chamber before first use (ca. 30 min) and for repeating an experiment (max. 6 h). Gly-pNA stock solution (1.69 mM) was obtained by dissolving 3.3 mg Gly-pNA in 10 mL phosphate buffer solution (80 mM) and could be used for several weeks if stored at 4 °C. For all chemoassay experiments, 1.8 mL glass vials were used as reaction batches, which were initially filled with 1070 μL phosphate buffer (80 mM) and 30 μL Gly-pNA stock solution. To start the reaction, 400 μL of the test compound stock solutions was added. […] The time between the start of the reaction and the first analysis was measured with an electronic time clock. All reactions were performed under pseudo-1st order conditions with the electrophile being at least ten times in excess over Gly-pNA.
For these compounds, the minimum reactivity was estimated in terms of k Gly by plotting ln (A Gly ^ t /A Gly ^0) vs reaction time t (with A Gly ^ t and A Gly ^0 being the peak areas under the chromatographic signal for Gly-pNA at time t and at the beginning of the reaction (t = 0)). Linear regression through 0 (at t = 0) and the first measurement point yields slope s (see Figure S1) which is the pseudo-1st order rate constant k Gly ^pseudo that can be converted with the initial test compound concentration in the reactions mixture (c) into k Gly according to eq . 1 kGly=kGlypseudo/c
2 Ln(AGlyt/AGly0)≈−kGly·c·t+0.5·kGly·kloss·c·t^2 Here k loss is the first order rate constant covering all processes contributing to the loss of the test compounds, except the reaction with Gly-pNA. The regression parameter of the linear part of eq (= k Gly·c) is the pseudo-1st order rate constant k Gly ^pseudo and can be converted into k Gly according to eq (see above).
Linear regression of these plots provides slope s, which is again the pseudo-1st order rate constant, k Gly ^pseudo, and can be used to calculate k Gly according to eq . All experiments to determine k Gly have been conducted at least three times.

[2] = DPRA-like chemoassay with Gly-pNA (24 h percent depletion); conditions: PPB pH 7.4, 24 h, 25 °C, 50-fold excess of test compound
Protocol: (§1) In addition to the kinetic Gly-pNA chemoassay, the reactivity of the 27 compounds toward Gly-pNA and Lys-pNA was determined in terms of percentage depletions after reacting for 24 h at 25 °C employing the following DPRA-like setup: stock solutions for the test compounds were prepared by gravimetrically adding at least 3 mg of the respective compound into a glass vial (total volume 1.8 mL) and subsequent addition of 1 mL ACN. […] The stock solutions for Gly-pNA and Lys-pNA with a final concentration of 1.7 mM were prepared by dissolving the required amount in one of the three aqueous buffer solutions used for this DPRA-like chemoassay: phosphate buffer (80 mM, pH 7.4), phosphate buffer (80 mM, pH 10.2), and ammonium acetate buffer (100 mM, pH 10.2). Glass vials (1.8 mL) were used as reaction vessels.
(§2) In the final reaction mixtures, the concentration of Gly-pNA or Lys-pNA was 0.03 mM, and the test compound was 50 times in excess (1.5 mM). After incubation for 24 h at 25 °C, the free amount of either Gly-pNA or Lys-pNA was determined using the HPLC UV–vis method described for the kinetic Gly-pNA chemoassay. , The percentage depletion of Gly-pNA (D Gly) or Lys-pNA (D Lys) was determined directly from peak areas according to eq 3 Dx[%]=(Axcontrol−Ax/Axcontrol×100)withx=GlyorLys
(§3) In eq , A x and A x ^control are the peak areas of the chromatographic signal of either Gly-pNA (x = Gly) or Lys-pNA (x = Lys) at 315 nm after 24 h incubation with and without test compound, respectively.
(§4) Summary of experimental conditions of the DPRA-like setups used to determine
(§5) DGly, D Lys, and D DPRA data in Table 2 (main text).
(§6) Table S2. Overview of experimental conditions for the DPRA-like setups used to
(§7) determine 24 h percentage depletion rates for the reaction of the test compounds with
(§8) Gly-pNA, Lys-pNA, and the DPRA lysine peptide (literature data).

physchem = test: physchem
Protocol: To this end, the test compound was dissolved in 1 mL ACN in a glass vial. […] As reaction batches, 1.8 mL glass vials equipped with 400 μL glass inserts were used and filled with 220 μL of the respective aqueous buffer and 80 μL of the test compound stock solution. The depletion of the test compounds was recorded with the HPLC UV–vis instrument used for the kinetic Gly-pNA chemoassay. , Chromatographic separation of the reaction mixture was achieved using the gradient described for the Gly-pNA chemoassay previously , and an isocratic HPLC method (water/ACN 70:30, both with 0.1 vol % formic acid). The wavelengths used for the detection of the compound and the information on the used chromatographic method are given in the Supporting Information in Table S3.

[3] = DPRA-like chemoassay with Lys-pNA (24 h percent depletion); conditions: 25 °C, 50-fold excess of test compound
Protocol: as §1, §2, §3, §4, §5, §6, §7, §8

DPRA lysine peptide = system: DPRA lysine peptide; parameters: method as in literature; conditions: AAB pH 10.2, 24 h; ref literature; cited from earlier work
[4] = ref Krutz et al., Sadekar et al., Ponder et al., Karol et al., Hopkins et al.; cited from earlier work
[5] = reaction with Gly-pNA, phosphate buffer 80 mM, 25 °C, nominal test compound concentration, ≥ values are minimum reactivity
[6] = AAB (ammonium acetate buffer) pH 10.2, 24 h
[7] = reaction with Gly-pNA, phosphate buffer, nominal test compound concentration
[8] = buffer, pH 7.4, half-lives t 1/2 ± s(t 1/2), PPB (phosphate buffer 80 mM) pH 7.4
[9] = buffer, pH 10.2, half-lives t 1/2 ± s(t 1/2), AAP (ammonium acetate buffer 100 mM) pH 10.2
[10] = buffer, pH 10.2, half-lives t 1/2 ± s(t 1/2), PPB (phosphate buffer 80 mM) pH 10.2
[11] = aqueous ammonium acetate buffer with acetonitrile, pH 10.2
[12] = PPB (phosphate buffer 80 mM) pH 7.4
[13] = PPB (phosphate buffer 80 mM) pH 10.2
[14] = determined using the free (not bound by water) fraction of F1

Structure (SMILES) | k Gly ± s(k Gly), second-order rate constant [1, 5] | D Gly ± s(D Gly), 24 h percent depletion of Gly-pNA [2] | D Lys ± s(D Lys), 24 h percent depletion of Lys-pNA [3, 6] | D Lys ± s(D Lys), 24 h percent depletion of Lys-pNA ([3]; PPB pH 10.2, 24 h) | D DPRA ± s(D DPRA), depletion of the DPRA lysine peptide (DPRA lysine peptide) | log k Gly [1, 7] | half-life (physchem; [8]) | half-life (physchem; [9]) | half-life (physchem; [10]) | Classification as potential respiratory sensitizer or non-sensitizer [4] | half-lives t 1/2 ± s(t 1/2) (physchem; [12]) | other results
Cc1ccc(N=C=O)cc1N=C=O [A1, 2,4-Toluene diisocyanate] | ≥33484 ± 803 L mol^–1 min^–1 | 100% | 18.8 ± 0.6% | 100% | 22.0 ± 1.4% | – | – | – | – | – | – | half-life (physchem; buffer, pH 7.4, half-lives t 1/2 ± s(t 1/2)): < 1 min; half-life (physchem; buffer, pH 10.2, half-lives t 1/2 ± s(t 1/2)): < 1 min
O=C=Nc1cccc2c(N=C=O)cccc12 [A2, 1,5-naphthalene diisocyanate] | ≥24928 ± 12821 L mol^–1 min^–1 | 100% | 19.9 ± 3.7% | 100% | – | ≥4.40 | 3.6 ± 1.6 min | < 1 min | 2.6 ± 1.1 min | potential respiratory sensitizer | – | –
O=C1C=CC(=O)O1 [C4, maleic anhydride] | ≥5930 ± 160 L mol^–1 min^–1 | 100% | 12.0 ± 1.1% | 100% | 54.0 ± 25.5% | 3.77 | 35.3 ± 1.3 min | < 1 min | 2.7 min | – | – | –
O=C1OC(=O)C2C3C=CC(C3)C12 (centres unmarked) [C5, himic anhydride] | 4126 ± 114 L mol^–1 min^–1 | 100% | 29.6 ± 0.3% | 98.9 ± 0.1% | – | 3.62 | – | – | – | potential respiratory sensitizer | – | k Gly ± s(k Gly), second-order rate constant ([1]; reaction with Gly-pNA, phosphate buffer 80 mM, 25 °C, nominal test compound concentration, ≥ values are minimum reactivity, listed as himic anhydride): 4126 L mol^–1 min^–1; half-life (physchem; [11]): < 1 min; half-life (physchem; aqueous phosphate buffer with acetonitrile, pH 7.4): 6.79 ± 0.13 min; half-life (physchem; aqueous phosphate buffer with acetonitrile, pH 10.2): 1.3 ± 0.41 min
CC12CC=CCC1C(=O)OC2=O (centres unmarked) [D2, methyltetrahydrophthalic anhydride] | 2051 ± 32 L mol^–1 min^–1 | 100% | 18.0 ± 0.9% | 100% | – | 3.31 | 2.24 ± 0.03 min | < 1 min | < 1 min | potential respiratory sensitizer | – | –
O=[N+]([O-])c1ccc(S(=O)(=O)Cl)c([N+](=O)[O-])c1 [E1, 2,4-dinitrobenzenesulfonyl chloride] | – | 56.1% and 56.1 ± 0.5% | 13.4% and 13.4 ± 0.8% | 62.6% and 62.6 ± 4.2% | – | – | < 1 min | < 1 min | < 1 min | – | – | –
Clc1nc(Cl)nc(Cl)n1 [E2, 2,4,6-trichloro-1,3,5-triazine] | ≥1424 ± 364 L mol^–1 min^–1 | 100% | 91.1 ± 1.1% | 100% | 99.7 ± 0.6% | – | 1.14 ± 0.05 min | < 1 min | < 1 min | – | – | –
O=[N+]([O-])c1ccc(F)c([N+](=O)[O-])c1 [E3, 1-fluoro-2,4-dinitrobenzene] | 3.95 ± 0.07 L mol^–1 min^–1 | 72.7% and 72.7 ± 0.7% | 84.0 ± 3.3% | 100% | – | 0.6 | – | 73.2 ± 9.7 min | 615 ± 31 min | non-sensitizer | no depletion | –
O=[N+]([O-])c1ccc(Cl)c([N+](=O)[O-])c1 [E4, 1-chloro-2,4-dinitrobenzene] | – | – | 5.0 ± 0.7% | 8.1 ± 0.5% | 21.1 ± 16.3% | –2.20 | – | – | – | non-sensitizer | no depletion | half-lives t 1/2 ± s(t 1/2) (physchem; AAP (ammonium acetate buffer 100 mM) pH 10.2): did not show any significant signal depletion; also recorded: no depletion; half-lives t 1/2 ± s(t 1/2) (physchem; [13]): no depletion
C=C(C#N)C(=O)OCC [F1, ethyl 2-cyanoacrylate] | 2.22 ± 0.33 L mol^–1 min^–1 | 98.3 ± 0.1% | 1.6 ± 0.2% | 40.2% and 40.2 ± 1.9% | – | 0.35 | – | – | – | – | – | k Gly ± s(k Gly), second-order rate constant [1, 14]: 10886 L mol^–1 min^–1 and 10886 ± 1589 ^c L mol^–1 min^–1; log k Gly [1, 14]: 4.02 and 4.04; free (reactive) fraction, not bound to water ([1]; in the Gly-pNA chemoassay setup): < 0.1%
C=C(C)C(=O)OC [F5, methyl methacrylate] | – | – | 0.7 ± 0.3% | 2.6 ± 1.3% | 10.6 ± 0.8% | – | – | 3060 ± 625 min | 1880 ± 488 min | – | no depletion | –
Cc1ccc(S(=O)(=O)NCl)cc1 [G2, chloramine T] | 41.9 ± 0.2 L mol^–1 min^–1 | 100% | 23.9 ± 1.6% | 53.8 ± 2.9% | 80.8 ± 30.7% | 1.62 | – | – | – | – | no depletion | half-lives t 1/2 ± s(t 1/2) (physchem; [13]): no depletion; half-life (physchem; [11]): 58.5 ± 1.3 min
